Among the data in ChEMBL document CHEMBL4334492, “Nectriatide, a Potentiator of Amphotericin B Activity from Nectriaceae sp. BF-0114” (J Nat Prod, 2019) are Ratio, MIC and IC50 values, retold here.

The subject of assay [1] is Candida albicans. The experiment in a line: Potentiation of amphotericin-induced antifungal activity against Candida albicans ATCC 90029 assessed as fold reduction in amphotericin MIC at 4 ug/ml after 24 hrs by broth microdilution method relative to amphotericin MIC alone. Type of assay: functional. Background: Broth dilution looks for growth in wells or tubes with falling amounts of substance.

The test system of assay [2] is Candida albicans. The experiment in a line: Potentiation of amphotericin-induced antifungal activity against Candida albicans ATCC 90029 assessed as fold reduction in amphotericin MIC at 2 ug/ml after 24 hrs by broth microdilution method relative to amphotericin MIC alone. Type of assay: functional.
The subject of assay [3] is Candida albicans. Briefly: Potentiation of amphotericin-induced antifungal activity against Candida albicans ATCC 90029 assessed as fold reduction in amphotericin MIC at 32 ug/ml after 24 hrs by broth microdilution method relative to amphotericin MIC alone. It counts as functional.
Assay [4] deals with Candida albicans. The experiment in a line: Potentiation of amphotericin-induced antifungal activity against Candida albicans ATCC 90029 assessed as fold reduction in amphotericin MIC at 16 ug/ml after 24 hrs by broth microdilution method relative to amphotericin MIC alone. Type of assay: functional.
Assay [5] concerns Candida albicans. Briefly: Potentiation of amphotericin-induced antifungal activity against Candida albicans ATCC 90029 assessed as amphotericin MIC at 4 ug/ml after 24 hrs by broth microdilution method (reference value: 0.5 ug/ml). Type of assay: functional. The conditions noted are these: ATCC 90029, 24 h.
Assay [6] deals with Candida albicans. Briefly: Potentiation of amphotericin-induced antifungal activity against Candida albicans ATCC 90029 assessed as amphotericin MIC at 2 ug/ml after 24 hrs by broth microdilution method (reference value: 0.5 ug/ml). Type of assay: functional. The conditions noted are these: ATCC 90029, 24 h.
The subject of assay [7] is Candida albicans. The experiment in a line: Potentiation of amphotericin-induced antifungal activity against Candida albicans ATCC 90029 assessed as amphotericin MIC at 32 ug/ml after 24 hrs by broth microdilution method (reference value: 0.5 ug/ml). It counts as functional. The conditions noted are these: ATCC 90029, 24 h.
For assay [8], the system named is Candida albicans. The experiment in a line: Potentiation of amphotericin-induced antifungal activity against Candida albicans ATCC 90029 assessed as amphotericin MIC at 16 ug/ml after 24 hrs by broth microdilution method (reference value: 0.5 ug/ml). Type of assay: functional. The settings on record: ATCC 90029, 24 h.
Assay [9] concerns Candida albicans. The experiment in a line: Potentiation of amphotericin-induced antifungal activity against Candida albicans ATCC 90029 assessed as amphotericin MIC at 8 ug/ml after 24 hrs by broth microdilution method (reference value: 0.5 ug/ml). It counts as functional. The conditions noted are these: ATCC 90029, 24 h.
Assay [10] deals with HEK293. Briefly: Cytotoxicity against human HEK293 cells assessed as reduction in cell viability after 24 hrs by MTT assay. Type of assay: cell-based. The settings on record: HEK293, 24 h. For orientation: Tetrazolium dyes change colour on reduction, which living cells bring about.
Assay [11] deals with Candida albicans. Briefly: Potentiation of amphotericin-induced antifungal activity against Candida albicans ATCC 90029 assessed as fold reduction in amphotericin MIC at 8 ug/ml after 24 hrs by broth microdilution method relative to amphotericin MIC alone. Type of assay: functional.

The MIC is the least concentration at which growth counts as inhibited. One may read the IC50 as the concentration that gives 50% inhibition.

Converted amounts (≈) assume the structure as drawn. Non-standard residues stand in square brackets, D forms with d. Residues, ends and D or L forms follow the SMILES beside them. *: point of attachment. NMeY = CN[C@@H](Cc1ccc(O)cc1)C(=O)O; 2Abz = Nc1ccccc1C(=O)O; tBu = CC(C)(C)*

Regarding `CC(C)[C@H](NC(=O)[C@H](C)N)C(=O)N(C)[C@@H](Cc1ccc(OC(C)(C)C)cc1)C(=O)Nc1ccccc1C(=O)O` (H-AV[NMeY](tBu)[2Abz]-OH), the Ratio in assay [1] is recorded as 4; in assay [2], 2; in assay [3] it was 16; in [4] it was 16. In addition, the MIC was 0.13 µg/mL in [5]; 0.25 µg/mL in assay [6]; 0.031 µg/mL in [7]; 0.031 µg/mL in assay [8]; 0.031 µg/mL in [9].
On to `C[C@@H]1[C@H](O)[C@@H](C)/C=C/C=C/C=C/C=C/C=C/C=C/C=C/[C@H](O[C@@H]2O[C@H](C)[C@@H](O)[C@H](N)[C@@H]2O)C[C@@H]2O[C@](O)(C[C@@H](O)C[C@@H](O)[C@H](O)CC[C@@H](O)C[C@@H](O)CC(=O)O[C@H]1C)C[C@H](O)[C@H]2C(=O)O` [AMPHOTERICIN B], for which the IC50 in assay [10] came out at 15 µg/mL (≈ 16.2 µM).
`CN[C@@H](Cc1ccc(OC(C)(C)C)cc1)C(=O)Nc1ccccc1C(=O)N[C@@H](C)C(=O)N[C@H](C(=O)O)C(C)C` (H-[NMeY](tBu)[2Abz]AV-OH): the Ratio in assay [3] was determined as 16; in [4], 8; in [11], 4. The MIC in assay [7] was found to be 0.031 µg/mL; in assay [8], 0.063 µg/mL; in assay [9], 0.13 µg/mL.
Turning to `CC(C)[C@@H]1NC(=O)[C@H](C)NC(=O)c2ccccc2NC(=O)[C@H](Cc2ccc(OC(C)(C)C)cc2)N(C)C1=O` (cyclo([2Abz]AV[NMeY](tBu))), the values for the Ratio in assay [3], in assay [4] and in assay [11] were 16, 8 and 4, respectively. In addition, the values for the MIC in [7], in assay [8] and in assay [9] were 0.031 µg/mL, 0.063 µg/mL and 0.13 µg/mL, respectively.
As to `CN[C@@H](Cc1ccc(OC(C)(C)C)cc1)C(=O)Nc1ccccc1C(=O)N[C@@H](C)C(=O)O`, in assay [3], the Ratio is recorded as 2. Besides, in [7], the MIC came out at 0.25 µg/mL.
The like results for `Nc1ccccc1C(=O)O` [ANTHRANILIC ACID] were, in that order, 1 and 0.5 µg/mL.
